# Measured values taken from ChEMBL document CHEMBL6092185, “Discovery of glycosidated glycyrrhetinic acid derivatives: Natural product-based soluble epoxide hydrolase inhibitors” (Eur J Med Chem, 2024).
# pIC50: −log10 of the molar value.
# Assays:
# [1] = organism: Mus musculus; assay: animal or person; settings: BALB/c, 6 h, read-out: INH
# Description: Anti-inflammatory activity in BALB/c mouse model of Carrageenan-induced paw edema assessed as inhibition of edema at 5 mg/kg, ip measured upto 6 hrs relative to control
# [2] = target: T1, Bifunctional epoxide hydrolase 2 (Mus musculus, UniProt P34914); assay: Inhibition of C57BL/6J mouse cortex sEH using 14,15-EET as substrate preincubated for 15 mins followed by substrate addition measured after 2 hrs by UPLC-MS/MS analysis
# T1 sequence (P34914 whole entry): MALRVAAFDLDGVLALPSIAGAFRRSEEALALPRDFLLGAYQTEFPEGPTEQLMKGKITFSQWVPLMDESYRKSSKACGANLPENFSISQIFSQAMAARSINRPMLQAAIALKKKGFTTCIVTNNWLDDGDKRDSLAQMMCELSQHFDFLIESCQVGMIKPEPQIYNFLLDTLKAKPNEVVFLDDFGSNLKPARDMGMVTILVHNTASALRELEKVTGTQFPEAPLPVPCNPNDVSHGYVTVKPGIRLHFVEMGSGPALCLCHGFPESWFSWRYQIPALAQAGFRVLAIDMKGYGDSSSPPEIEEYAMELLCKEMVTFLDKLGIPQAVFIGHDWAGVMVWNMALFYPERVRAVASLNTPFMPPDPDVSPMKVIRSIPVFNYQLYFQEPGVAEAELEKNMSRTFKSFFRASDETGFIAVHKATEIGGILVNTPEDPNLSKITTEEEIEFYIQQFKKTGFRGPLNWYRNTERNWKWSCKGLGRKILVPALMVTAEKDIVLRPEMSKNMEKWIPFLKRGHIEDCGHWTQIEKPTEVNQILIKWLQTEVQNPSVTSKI
# [3] = organism: Mus musculus; assay: animal or person; settings: BALB/c, 4 h, read-out: INH
# [4] = organism: Mus musculus; assay: animal or person; settings: BALB/c, 2 h, read-out: INH
# Description: Anti-inflammatory activity in BALB/c mouse model of Carrageenan-induced paw edema assessed as inhibition of edema at 5 mg/kg, ip measured after 2 hrs relative to control
# [5] = organism: Mus musculus; assay: animal or person; settings: BALB/c, 3 h, read-out: INH
# Description: Anti-inflammatory activity in BALB/c mouse model of Carrageenan-induced paw edema assessed as inhibition of edema at 5 mg/kg, ip measured after 3 hrs relative to control
# [6] = organism: Mus musculus; assay: animal or person; settings: BALB/c, po, 1 h, read-out: INH
# Description: Anti-inflammatory activity in BALB/c mouse model of Carrageenan-induced paw edema assessed as inhibition of edema at 20 mg/kg, IG measured after 1 hr relative to control
# [7] = Cytotoxicity against human HepG2 cells incubated overnight by CCK8 assay
# [8] = Cytotoxicity against HEK293T cells incubated overnight by CCK8 assay; settings: human
pIC50 [2],Compound,other results
–,CC[C@H](C)C(=O)N1CCC(NC(=O)Nc2ccc(OC(F)(F)F)c(F)c2)CC1,inhibition in vivo at 5 mg/kg [1]: 39.2%
8.18,CC(C)CNC(=O)NC[C@@]1(C)CC[C@]2(C)CC[C@]3(C)C(=CC[C@@H]4[C@@]5(C)CC[C@H](O)C(C)(C)[C@@H]5CC[C@]43C)[C@@H]2C1,–
6.82,CCC(=O)N1CCC(CNC(=O)NC[C@@]2(C)CC[C@]3(C)CC[C@]4(C)C(=CC(=O)[C@@H]5[C@@]6(C)CC[C@H](O[C@H]7O[C@H](CO)[C@@H](O)[C@H](O)[C@@H]7O)C(C)(C)[C@@H]6CC[C@]54C)[C@H]3C2)CC1,–
6.76,CCC(=O)N1CCC(CNC(=O)NC[C@@]2(C)CC[C@]3(C)CC[C@]4(C)C(=CC(=O)[C@@H]5[C@@]6(C)CC[C@H](O[C@@H]7O[C@H](CO)[C@@H](O)[C@H](O)[C@@H]7O)C(C)(C)[C@@H]6CC[C@]54C)[C@@H]3C2)CC1,–
6.35,CC1(C)[C@@H](O[C@@H]2O[C@H](CO)[C@@H](O)[C@H](O)[C@H]2O)CC[C@]2(C)[C@H]3C(=O)C=C4[C@@H]5C[C@@](C)(CNC(=O)NCC6CCOCC6)CC[C@]5(C)CC[C@@]4(C)[C@]3(C)CC[C@@H]12,–
6.35,CC1(C)[C@@H](O[C@H]2OC[C@@H](O)[C@H](O)[C@H]2O)CC[C@]2(C)[C@H]3C(=O)C=C4[C@H]5C[C@@](C)(CNC(=O)NCC6CCOCC6)CC[C@]5(C)CC[C@@]4(C)[C@]3(C)CC[C@@H]12,–
5.64,CC1(C)[C@@H](O[C@H]2O[C@H](CO)[C@@H](O)[C@H](O)[C@H]2O)CC[C@]2(C)[C@H]3C(=O)C=C4[C@@H]5C[C@@](C)(CNC(=O)NCC6CCC(OC(F)(F)F)CC6)CC[C@]5(C)CC[C@@]4(C)[C@]3(C)CC[C@@H]12 (stereo partly drawn),–
7.72,CC1(C)C(=O)CC[C@]2(C)[C@H]3C(=O)C=C4[C@@H]5C[C@@](C)(CNC(=O)NCC6CCOCC6)CC[C@]5(C)CC[C@@]4(C)[C@]3(C)CC[C@@H]12,–
8.00,CCC(=O)N1CCC(CNC(=O)NC[C@@]2(C)CC[C@]3(C)CC[C@]4(C)C(=CC(=O)[C@@H]5[C@@]6(C)CC[C@H](O)C(C)(C)[C@@H]6CC[C@]54C)[C@H]3C2)CC1,–
8.07,CC1(C)[C@@H](O)CC[C@]2(C)[C@H]3C(=O)C=C4[C@@H]5C[C@@](C)(CNC(=O)NCc6ccc(OC(F)(F)F)cc6)CC[C@]5(C)CC[C@@]4(C)[C@]3(C)CC[C@@H]12,–
6.36,CC1(C)[C@@H](O[C@@H]2OC[C@@H](O)[C@H](O)[C@H]2O)CC[C@]2(C)[C@H]3C(=O)C=C4[C@H]5C[C@@](C)(CNC(=O)NCC6CCOCC6)CC[C@]5(C)CC[C@@]4(C)[C@]3(C)CC[C@@H]12,–
6.35,CC1(C)[C@@H](O[C@H]2O[C@H](CO)[C@@H](O)[C@H](O)[C@H]2O)CC[C@]2(C)[C@H]3C(=O)C=C4[C@H]5C[C@@](C)(CNC(=O)NCC6CCOCC6)CC[C@]5(C)CC[C@@]4(C)[C@]3(C)CC[C@@H]12,inhibition in vivo at 5 mg/kg [1]: 40.3%
7.89,CC1(C)[C@@H](O)CC[C@]2(C)[C@H]3C(=O)C=C4[C@H]5C[C@@](C)(CNC(=O)NCc6ccc(S(N)(=O)=O)cc6)CC[C@]5(C)CC[C@@]4(C)[C@]3(C)CC[C@@H]12,–
6.51,CC1(C)[C@@H](O[C@H]2O[C@H](CO)[C@H](O)[C@H](O)[C@H]2O)CC[C@]2(C)[C@H]3C(=O)C=C4[C@H]5C[C@@](C)(CNC(=O)NCC6CCOCC6)CC[C@]5(C)CC[C@@]4(C)[C@]3(C)CC[C@@H]12,–
7.87,CC1(C)C(=O)CC[C@]2(C)[C@H]3C(=O)C=C4[C@H]5C[C@@](C)(CNC(=O)NCC6CCOCC6)CC[C@]5(C)CC[C@@]4(C)[C@]3(C)CC[C@@H]12,–
8.11,CC1(C)[C@@H](O)CC[C@]2(C)[C@H]3C(=O)C=C4[C@@H]5C[C@@](C)(CNC(=O)NCC6CCOCC6)CC[C@]5(C)CC[C@@]4(C)[C@]3(C)CC[C@@H]12,inhibition in vivo at 20 mg/kg [3]: 27.2%
7.69,CC(C)CNC(=O)NC[C@@]1(C)CC[C@]2(C)CC[C@]3(C)C(=CC(=O)[C@@H]4[C@@]5(C)CC[C@H](O)C(C)(C)[C@@H]5CC[C@]43C)[C@@H]2C1,–
7.77,CC1(C)[C@@H](O)CC[C@]2(C)[C@H]3C(=O)C=C4[C@H]5C[C@@](C)(CNC(=O)NCc6ccc(OC(F)(F)F)cc6)CC[C@]5(C)CC[C@@]4(C)[C@]3(C)CC[C@@H]12,–

pIC50 [2],Compound,other results
6.27,CC1(C)[C@@H](O[C@@H]2O[C@H](CO)[C@H](O)[C@H](O)[C@H]2O)CC[C@]2(C)[C@H]3C(=O)C=C4[C@H]5C[C@@](C)(CNC(=O)NCC6CCOCC6)CC[C@]5(C)CC[C@@]4(C)[C@]3(C)CC[C@@H]12,–
6.52,CC1(C)[C@@H](O[C@@H]2O[C@H](CO)[C@@H](O)[C@H](O)[C@H]2O)CC[C@]2(C)[C@H]3C(=O)C=C4[C@H]5C[C@@](C)(CNC(=O)NCC6CCOCC6)CC[C@]5(C)CC[C@@]4(C)[C@]3(C)CC[C@@H]12,inhibition in vivo at 5 mg/kg [4]: 43.2%; inhibition in vivo at 5 mg/kg [5]: 42.4%
6.74,CCC(=O)N1CCC(CNC(=O)NC[C@@]2(C)CC[C@]3(C)CC[C@]4(C)C(=CC(=O)[C@@H]5[C@@]6(C)CC[C@H](O[C@H]7O[C@H](CO)[C@@H](O)[C@H](O)[C@@H]7O)C(C)(C)[C@@H]6CC[C@]54C)[C@@H]3C2)CC1,inhibition in vivo at 20 mg/kg [6]: 38.4%
6.41,CC1(C)[C@@H](O[C@H]2O[C@H](CO)[C@@H](O)[C@H](O)[C@H]2O)CC[C@]2(C)[C@H]3C(=O)C=C4[C@@H]5C[C@@](C)(CNC(=O)NCC6CCOCC6)CC[C@]5(C)CC[C@@]4(C)[C@]3(C)CC[C@@H]12,–
7.99,CC1(C)[C@@H](O)CC[C@]2(C)[C@H]3CC=C4[C@@H]5C[C@@](C)(CNC(=O)NCC6CCOCC6)CC[C@]5(C)CC[C@@]4(C)[C@]3(C)CC[C@@H]12,–
6.80,CC1(C)[C@@H](O[C@@H]2O[C@H](CO)[C@@H](O)[C@H](O)[C@@H]2O)CC[C@]2(C)[C@H]3C(=O)C=C4[C@H]5C[C@@](C)(CNC(=O)NCC6CCOCC6)CC[C@]5(C)CC[C@@]4(C)[C@]3(C)CC[C@@H]12,–
7.87,CC(C)CNC(=O)NC[C@@]1(C)CC[C@]2(C)CC[C@]3(C)C(=CC(=O)[C@@H]4[C@@]5(C)CC[C@H](O)C(C)(C)[C@@H]5CC[C@]43C)[C@H]2C1,–
5.67,CC1(C)[C@@H](O[C@@H]2O[C@H](CO)[C@@H](O)[C@H](O)[C@H]2O)CC[C@]2(C)[C@H]3C(=O)C=C4[C@@H]5C[C@@](C)(CNC(=O)NCC6CCC(OC(F)(F)F)CC6)CC[C@]5(C)CC[C@@]4(C)[C@]3(C)CC[C@@H]12 (stereo partly drawn),–
5.25,CC1(C)[C@@H](O[C@H]2O[C@H](CO)[C@@H](O)[C@H](O)[C@H]2O)CC[C@]2(C)[C@H]3C(=O)C=C4[C@H]5C[C@@](C)(CNC(=O)NCc6ccc(OC(F)(F)F)cc6)CC[C@]5(C)CC[C@@]4(C)[C@]3(C)CC[C@@H]12,–
5.43,CC1(C)[C@@H](O[C@@H]2O[C@H](CO)[C@@H](O)[C@H](O)[C@H]2O)CC[C@]2(C)[C@H]3C(=O)C=C4[C@H]5C[C@@](C)(CNC(=O)NCc6ccc(OC(F)(F)F)cc6)CC[C@]5(C)CC[C@@]4(C)[C@]3(C)CC[C@@H]12,–
7.80,CC1(C)[C@@H](O)CC[C@]2(C)[C@H]3C(=O)C=C4[C@@H]5C[C@@](C)(CNC(=O)NCc6ccc(S(C)(=O)=O)cc6)CC[C@]5(C)CC[C@@]4(C)[C@]3(C)CC[C@@H]12,–
6.82,CCC(=O)N1CCC(CNC(=O)NC[C@@]2(C)CC[C@]3(C)CC[C@]4(C)C(=CC(=O)[C@@H]5[C@@]6(C)CC[C@H](O[C@@H]7O[C@H](CO)[C@@H](O)[C@H](O)[C@@H]7O)C(C)(C)[C@@H]6CC[C@]54C)[C@H]3C2)CC1,–
7.70,CC1(C)[C@@H](O)CC[C@]2(C)[C@H]3C(=O)C=C4[C@@H]5C[C@@](C)(CNC(=O)NCc6ccc(S(N)(=O)=O)cc6)CC[C@]5(C)CC[C@@]4(C)[C@]3(C)CC[C@@H]12,–
8.28,CC1(C)[C@@H](O)CC[C@]2(C)[C@H]3C(=O)C=C4[C@H]5C[C@@](C)(CNC(=O)NCC6CCOCC6)CC[C@]5(C)CC[C@@]4(C)[C@]3(C)CC[C@@H]12,inhibition in vivo at 20 mg/kg [3]: 28.4%; pIC50 [7]: < 4.30; pIC50 [8]: < 4.30
8.25,CCC(=O)N1CCC(CNC(=O)NC[C@@]2(C)CC[C@]3(C)CC[C@]4(C)C(=CC(=O)[C@@H]5[C@@]6(C)CC[C@H](O)C(C)(C)[C@@H]6CC[C@]54C)[C@@H]3C2)CC1,–
8.01,CC1(C)[C@@H](O)CC[C@]2(C)[C@H]3C(=O)C=C4[C@H]5C[C@@](C)(CNC(=O)NCc6ccc(S(C)(=O)=O)cc6)CC[C@]5(C)CC[C@@]4(C)[C@]3(C)CC[C@@H]12,–
6.94,CC1(C)[C@@H](O[C@@H]2OC[C@@H](O)[C@@H](O)[C@@H]2O)CC[C@]2(C)[C@H]3C(=O)C=C4[C@H]5C[C@@](C)(CNC(=O)NCC6CCOCC6)CC[C@]5(C)CC[C@@]4(C)[C@]3(C)CC[C@@H]12,–
